Assay results from US7402600B2, “Nitroderivatives of cardiovascular agents” (NicOx S.A., priority 1999, dated 2008).
Entries after “also recorded” stand apart in the source; their conditions may differ.

Columns and labels:
[1] = Test 4: inhibition of radical production from DPPH; conditions: tested substance 100 μM in methanol, 30 minutes, absorbance 517 nm
Protocol: Test 4 is a colorimetric test which must not be satisfied by the precursor of B or B1 (precursor of the X2 or X2a of the formulas (I) and (II) respectively). The inhibition of the production of radicals from DPPH (2,2-diphenyl-1-picryl-hydrazyl) is described in M. S. Nenseter et Al., Atheroscler. Thromb. 15, 1338-1344, 1995. 100 μM solutions in methanol of the tested substances are prepared, and an aliquot of each of said solutions is added to a DPPH solution in methanol 0.1 M. After having stored the solutions at room temperature away from light for 30 minutes, their absorbances are read at the wave length of 517 nm, together with that of the corresponding DPPH solution at the same concentration. The absorbance decrease with respect to that of the solution of DPPH at the same concentration of the test solutions is determined. The effectiveness of the tested compound in inhibiting formation of radicals by DPPH is expressed by the following formula: (1−AS/AC)×100 wherein AS and AC are respectively the absorbance values of the solution containing the test compound together with DPPH and of the solution containing only DPPH. Test 4 is satisfied when the inhibition is equal or greater than 50%.
Test 4: Inhibition of the Radical Production from DPPH of Some Substances Used as Precursors of B or B1 (Ref. Formulas I and II of the Invention)
The method is based on a calorimetric test in which DPPH (2,2-diphenyl-1-picryl-hydrazyl) is used as the compound-forming radicals (M. S. Nenseter et Al., Atheroscler. Thromb. 15, 1338-1344, 1995).
Solutions in methanol of the tested substances at a final concentration 100 μM are initially prepared. 0.1 ml of each of these solutions are added to aliquots of 1 ml of a methanol solution 0.1 M of DPPH and then the final volume is brought to 1.5 ml. After having stored the solutions at room temperature away from light for 30 minutes, the absorbance at the wave length of 517 nm is read. It is determined the absorbance decrease with respect to the absorbance of a solution containing the same concentration of DPPH.
The efficacy of the test compound to inhibit the production of radicals, or antiradical activity, is expressed by the following formula: (1−AS/AC)×100 wherein AS and AC are, respectively, the absorbance values of the solution containing the test compound together+DPPH and of the solution containing only DPPH.

gastrointestinal mucosa = assay: Test 1 (NEM): gastric tolerability of precursor drugs in rats treated or not with N-ethylmaleimide; conditions: rat, in vivo, 24 h
Protocol: The animals (rats) are distributed in the following groups (no. 10 animals for group):
• 1° group: treatment: only carrier (aqueous suspension 1% w/v of carboxymethylcellulose, dose: 5 ml/Kg when the drug is administered by os, or a physiologic solution when parenterally administered, i.e. by subcutaneous, intraperitoneal, intravenous or intramuscular route), • 2° group: treatment: carrier as above defined+NEM, B) Groups Treated with the Drug: • group I: treatment: carrier+drug, • group II: treatment: carrier+drug+NEM.
The administration routes are those known for the drug, and can be the oral or subcutaneous, intraperitoneal, intravenous or intramuscular route.
(§1) The animals are sacrificed after 24 hours and then one proceeds to the evaluation of the damage to the gastrointestinal mucosa.
Test 1—Experimental Model in Vivo with N-ethylmaleimide (NEM): Study of the Gastric Tolerability of Some Drugs Screened as Precursors of the Compounds of the Invention.
The animals (rats, weight about 200 g) are distributed in the following groups (No. 10 animals for group):
• 1° group: treatment: only carrier (aqueous suspension 1% w/v of carboxymethylcellulose, dose: 5 ml/Kg when the drug is administered by os, physiologic solution when by parenteral route), • 2° group: treatment: carrier+NEM B) Groups Administered with Each Drug: • group I: treatment: carrier+drug, • group II: treatment: carrier+drug+NEM.
The drug is administered one hour later, in suspension in the carrier. Animals are sacrificed after 24 hours and evaluation of the damage to the gastrointestinal mucosa is made by counting the number of rats, inside each group, with lesions to the stomach at a visual inspection. The total number of said rats is then divided by the total number of rats of the group and multiplied by 100.

[2] = system: Human endothelial cells of the umbilical vein; assay: Test 2 (CIP): apoptosis (DNA fragmentation) induced by cumene hydroperoxide in endothelial cells; format: cell-based; conditions: drug 10^-4 M; for inhibition of apoptosis induced by CIP (in words, t Student p<0.01): CIP 5 mM
Protocol: Test 2 (CIP): Protection parameter of endothelial cell against the oxidative stress induced by cumene hydroperoxide (CIP).
Human endothelial cells of the umbilical vein are prepared according to an usual standard procedure. Fresh umbilical veins are filled with a 0.1% by weight collagenase solution and incubated at 37° C. for 5 minutes.
The cells are collected from the perfusate by centrifugation and harvested in culture flasks T-75, pretreated with human fibronectin. The cells are then harvested in the same medium, further added with 10 ng/ml of bovine hypothalamic growth factor. When the cells of the primary cell culture (i.e. that directly obtained from ex-vivo) form a single layer of confluent cells (about 8,000,000 cells/flask), the culture is stopped and the layers washed and trypsinized. The cellular suspensions are transferred into the wells of a cell culture plate having 24 wells, half of which is then additioned with the same culture medium containing the drug at a 10^−4M concentration, and harvested in a thermostat at 37° C. at a constant moisture. Only the cells coming from said first sub-cultures are used for the experiments with cumene hydroperoxide (CIP).
Before starting the test, the cellular culture medium is removed and the cellular layers are carefully washed with a physiologic solution at a temperature of 37° C. The wells of the culture plate are then incubated for one hour with CIP at a 5 mM concentration in the culture medium. […] 5 replicates for each sample are carried out.
Human endothelial cells of the umbilical vein are prepared according to a standard method. Fresh umbilical veins are filled with a collagenase solution 0.1% by weight and incubated at 37° C. for 5 minutes.
The cells are collected from the perfusate by centrifugation at 800 rpm and harvested in culture flasks T-75, pretreated with human fibronectin. Cells are then harvested in the same medium, added with bovine hypothalamic growth factor (100 ng/ml). When the cells of the primary cell culture (the cells directly removed from ex-vivo umbilical vein) form a single layer of confluent cells (about 8,000,000 cells/flask), harvesting is stopped and the layers are washed and trypsinized. The cellular suspensions are transferred into wells of a culture plate having 24 wells, half of said wells being added with the same culture medium containing the drug at a 10^−4M concentration, and harvested in a thermostat at 37° C. at a constant moisture (90%), CO2=5%. When the drug is not soluble in the culture medium, it is formerly dissolved in a small amount of dimethylsulphoxide. The maximum amount of dimethylsulphoxide which can be added to the culture medium is 0.5%. Only the cells coming from these first subcultures are used for the tests with cumene hydroperoxide (CIP). The cells are identified as endothelial cells by morphological examination and by the specific immunological reaction towards factor VIII; these cultures did never show contaminations from myocytes or fibroblasts.
Before starting the test, the cellular culture medium is removed and the cellular layers are carefully washed with a standard physiologic solution buffered with phosphate 0.1 M pH 7.0, at the temperature of 37° C. The content of each well is then incubated for one hour with a CIP suspension in the culture medium at a 5 mM concentration. Evaluation of the cellular damage (apoptosis) is carried out by determining the percent variation of the DNA fragmentation in the cultures containing the drug+CIP with respect to the controls treated with CIP only. […] The fluorescence of each sample was determined on 5 replicates. Statistic evaluation has been made with t Student test (p<0.01).

[3] = system: gastrointestinal mucosa, GPT, blood pressure; conditions: rat, in vivo; for Gastroenteropathy % without L-NAME: 4 weeks
Protocol: The endothelial dysfunction is evaluated by determining the damage to the gastrointestinal mucosa, the hepatic damage and blood hypertension induced by administration of L-NAME.
The animals (rats) are divided in groups as herein below shown. The group receiving L-NAME is treated for 4 weeks with said compound dissolved at a concentration of 400 mg/litre in drinking water. The following groups are constituted (No. 10 animals for group):
(§2) • 1° group: only carrier (aqueous suspension 1% w/v of carboxymethylcellulose, dose: 5 ml/Kg when the drug is administered by os, phisiologic solution when administered parenterally), • 2° group: carrier+L-NAME, B) Groups Administered with the Drug: • 3° group: carrier+drug, • 4° group: carrier+drug+L-NAME.
The administration routes are those known for the drug, and can be the oral or subcutaneous, intraperiteneal, intravenous or intramuscular route. […] The drug is administered once a day for 4 weeks.
At the end of the four weeks treatment access to water is prevented and after 24 hours the animals are sacrificed.
One hour before the sacrifice blood-pressure is determined, and a blood pressure increase is taken as an evaluation of the damage to vascular endothelium. […] The hepatic damage is determined by evaluation of the glutamic-pyruvic transaminase (GPT increase) after sacrifice.
Test 3-Experimental in Vivo Model with N^w-nitro-L-arginine-methyl ester (L-NAME): Gastric Tolerability (Gastrointestinal Damage Incidence), Hepatic (GPT Dosage, Glutamic-pyruvic Transaminase) and Cardiovascular (Blood Pressure) Tolerability of Some Drugs Screened as Precursors of the Compounds of the Invention.
The endothelial dysfunction is evaluated by determining the damage induced by L-NAME administration to the gastrointestinal mucosa, the hepatic damage (GPT increase), and the vascular endothelium or cardiovascular damage as blood hypertension.
The animals (rats, average weight 200 g) are divided in groups as herein below described. The group receiving L-NAME is treated for 4 weeks with said compound dissolved at the concentration of 400 mg/litre in drinking water. The following groups (No. 10 animals for group) are constituted:
as §2, with “group: treatment:” for “group:”, “physiologic” for “phisiologic”, “by parenteral route),” for “administered parenterally),”, “Treated” for “Administered”
Each drug is administered once a day for 4 weeks.
At the end of the four weeks access to water is prevented and after 24 hours the animals are sacrificed.
One hour before the sacrifice blood pressure is determined and a blood pressure increase is taken as an indication of a damage being occurred to vascular endothelium.
The hepatic damage is determined by evaluation after the sacrifice of the glutamic-pyruvic transaminase (GPT increase).
The % gastric lesions have been determined as in Test 1.

in vivo = conditions: rat, in vivo
Protocol: as §1

gastric mucosa = assay: Example F6: gastric tolerability of invention compounds versus precursor drugs, with or without L-NAME; format: in vivo, rats; conditions: rat, in vivo, 4 weeks
From the text: Gastric Tolerability Test of the Compounds According to the Invention in the Confront of the Corresponding Precursor Drugs in Conditions of Endothelial Dysfunctions Induced by L-NAME (N^w-nitro-L-arginine-methyl ester).

Structure (SMILES): COc1cc(/C=C/C(=O)O)ccc1O [Ferulic acid]
- % inhibition radical production from DPPH [1]: 100%

Structure (SMILES): COc1ccc2[nH]c([S+]([O-])Cc3ncc(C)c(OC)c3C)nc2c1 (stereo not drawn) [Omeprazol]
- Gastro-enteropathy (% incidence) without NEM (gastrointestinal mucosa): 0%
- inhibition of apoptosis induced by CIP (in words, t Student p<0.01) [2]: do not significantly inhibit apoptosis
- GPT % without L-NAME [3]: 100%
- Gastroenteropathy % without L-NAME [3]: 0%
- MTD at 24 h (in vivo; sc): 30 mg/kg

Structure (SMILES): Nc1c2c(nc3ccccc13)CCCC2 [Tacrine]
- Gastro-enteropathy (% incidence) without NEM (gastrointestinal mucosa): 0%
- inhibition of apoptosis induced by CIP (in words, t Student p<0.01) [2]: do not significantly inhibit apoptosis
- % gastropathy, animals not treated with L-NAME (gastric mucosa): 80%
- % gastropathy, animals treated with L-NAME (gastric mucosa): 70%
- MTD at 24 h (in vivo; sc): 1 mg/kg

Structure (SMILES): NCCCC(O)(P(=O)(O)O)P(=O)(O)O [Alendronate]
- Gastro-enteropathy (% incidence) without NEM (gastrointestinal mucosa): 0%
- inhibition of apoptosis induced by CIP (in words, t Student p<0.01) [2]: do not significantly inhibit apoptosis
- % gastropathy, animals not treated with L-NAME (gastric mucosa): 90%
- % gastropathy, animals treated with L-NAME (gastric mucosa): 70%

Structure (SMILES): COc1cccc2c1C(=O)c1c(O)c3c(c(O)c1C2=O)C[C@@](O)(C(=O)CO)C[C@@H]3O[C@H]1C[C@H](N)[C@H](O)[C@H](C)O1 [Doxorubicin]
- GPT % without L-NAME [3]: 195%
- Gastroenteropathy % without L-NAME [3]: 30%

Structure (SMILES): CC(=O)N[C@@H](CS)C(=O)O [N-acetylcisteine]
- % inhibition radical production from DPPH ([1]; listed as N-acetylcysteine): 100%

Structure (SMILES): Nc1c(Br)cc(Br)cc1CN[C@H]1CC[C@H](O)CC1 [Ambroxol, 4-[(2-amino-3,5-dibromophenyl)methylamino]cyclohexanol]
- Gastro-enteropathy (% incidence) without NEM (gastrointestinal mucosa): 0%
- activity at 100 µM ([2]; Homo sapiens, Endothelial cell, 1 h, CIP 5 mM for one hour, DNA fragmentation, read-out: Apoptosis % with respect to the controls treated only with CIP): 70%
- inhibition of apoptosis induced by CIP (in words, t Student p<0.01) [2]: inhibit apoptosis
- % gastropathy, animals not treated with L-NAME (gastric mucosa): 60%
- % gastropathy, animals treated with L-NAME (gastric mucosa): 80%
- MTD at 24 h (in vivo; po): 25 mg/kg

Structure (SMILES): COc1ccc2c(c1)c(CC(=O)O)c(C)n2C(=O)c1ccc(Cl)cc1 [Indomethacin]
- Gastro-enteropathy (% incidence) without NEM (gastrointestinal mucosa): 0%
- inhibition of apoptosis induced by CIP (in words, t Student p<0.01) [2]: not significantly different with respect to that of the controls
- inhibition of apoptosis induced by CIP (in words, t Student p<0.01) ([2]; listed as indomethacin): do not significantly inhibit apoptosis
- MTD at 24 h (in vivo; po): 7.5 mg/kg

Structure (SMILES): N[C@@H](CS)C(=O)O [Cisteine]
- % inhibition radical production from DPPH [1]: 100%

Structure (SMILES): Nc1ccc(O)c(C(=O)O)c1 [Mesalamine]
- Gastro-enteropathy (% incidence) without NEM (gastrointestinal mucosa): 0%
- inhibition of apoptosis induced by CIP (in words, t Student p<0.01) [2]: inhibit apoptosis; also recorded: inhibits the apoptosis induced by CIP

Structure (SMILES): O=C(O)c1cc(O)ccc1O [Gentisic acid]
- % inhibition radical production from DPPH [1]: 80%

Structure (SMILES): O=C1NC(C(=O)O)CS1 (stereo not drawn) [2-oxo-4-thiazolidin carboxylic acid]
- % inhibition radical production from DPPH [1]: 0%
